Results as given in patent US20210300943A1, “OGA INHIBITOR COMPOUNDS” (Janssen Pharmaceutica NV, priority 2018, published 2021).

How the values were obtained:
[1] = target: T1, OGA (Homo sapiens, UniProt O60502); experiment: OGA cellular assay (ICC detection of O-GlcNAcylated proteins in HEK293 cells inducible for P301L mutant human Tau); assay type: cell-based; conditions: for EC50 / Cellular Emax (%): HEK293 cells inducible for P301L mutant human Tau; for EC50: 6 hours incubation, read-out: Cellular hOGA, pEC50 (converted); for Cellular Emax (%) / Emax: maximal effect, Thiamet G 200 uM as maximum; for Emax: HEK293, HEK293 cells inducible for P301L mutant human Tau
T1 construct: endogenous in cells; host or cells: HEK293 cells inducible for P301L mutant human Tau (2N4R)
T1 sequence (O60502 1-916): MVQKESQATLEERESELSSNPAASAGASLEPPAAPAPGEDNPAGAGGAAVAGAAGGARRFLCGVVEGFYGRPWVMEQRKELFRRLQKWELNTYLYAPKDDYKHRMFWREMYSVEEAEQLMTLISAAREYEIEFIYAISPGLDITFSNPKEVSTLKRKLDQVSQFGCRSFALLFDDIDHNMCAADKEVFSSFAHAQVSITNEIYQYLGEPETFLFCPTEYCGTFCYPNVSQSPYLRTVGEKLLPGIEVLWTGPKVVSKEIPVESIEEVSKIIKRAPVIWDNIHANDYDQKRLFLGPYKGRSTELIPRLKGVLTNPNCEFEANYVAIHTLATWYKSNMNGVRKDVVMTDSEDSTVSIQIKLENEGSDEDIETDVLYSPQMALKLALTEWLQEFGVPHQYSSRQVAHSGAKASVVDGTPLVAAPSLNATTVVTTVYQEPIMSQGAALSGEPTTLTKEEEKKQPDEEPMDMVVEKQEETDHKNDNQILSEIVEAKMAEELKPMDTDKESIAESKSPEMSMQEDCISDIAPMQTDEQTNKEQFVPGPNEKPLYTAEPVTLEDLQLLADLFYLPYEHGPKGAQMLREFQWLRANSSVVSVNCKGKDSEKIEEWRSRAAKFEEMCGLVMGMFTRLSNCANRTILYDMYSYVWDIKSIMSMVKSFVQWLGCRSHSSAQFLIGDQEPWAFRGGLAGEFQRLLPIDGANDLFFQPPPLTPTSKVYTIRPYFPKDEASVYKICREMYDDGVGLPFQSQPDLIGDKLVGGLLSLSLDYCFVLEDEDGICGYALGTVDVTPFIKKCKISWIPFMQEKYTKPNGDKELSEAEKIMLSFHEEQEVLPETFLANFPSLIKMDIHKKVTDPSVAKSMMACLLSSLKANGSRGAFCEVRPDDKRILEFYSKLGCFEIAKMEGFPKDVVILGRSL
Procedure: HEK293 cells inducible for P301L mutant human Tau (isoform 2N4R) were established at Janssen. Thiamet-G was used for both plate validation (high control) and as reference compound (reference EC50 assay validation). OGA inhibition is evaluated through the immunocytochemical (ICC) detection of O-GlcNAcylated proteins by the use of a monoclonal antibody (CTD110.6; Cell Signaling, #9875) detecting 0-GlcNAcylated residues as previously described (Dorfmueller et al. 2010 Chemistry & biology, 17:1250). Inhibition of OGA will result in an increase of O-GlcNAcylated protein levels resulting in an increased signal in the experiment. Cell nuclei are stained with Hoechst to give a cell culture quality control and a rough estimate of immediate compounds toxicity, if any. ICC pictures are imaged with a Perkin Elmer Opera Phenix plate microscope and quantified with the provided software Perkin Elmer Harmony 4.1.
Cells were propagated in DMEM high Glucose (Sigma, #D5796) following standard procedures. 2 days before the cell assay cells are split, counted and seeded in Poly-D-Lysine (PDL) coated 96-wells (Greiner, #655946) plate at a cell density of 12,000 cells per cm^2 (4,000 cells per well) in 100 μl of Assay Medium (Low Glucose medium is used to reduce basal levels of GlcNAcylation) (Park et al. 2014 The Journal of biological chemistry 289:13519). At the day of compound test medium from assay plates was removed and replenished with 90 μl of fresh Assay Medium. 10 μl of compounds at a 10 fold final concentration were added to the wells. Plates were centrifuged shortly before incubation in the cell incubator for 6 hours. DMSO concentration was set to 0.2%. Medium is discarded by applying vacuum. For staining of cells medium was removed and cells washed once with 100 μl D-PBS (Sigma, #D8537). From next step onwards unless other stated assay volume was always 50 μl and incubation was performed without agitation and at room temperature. Cells were fixed in 50 μl of a 4% paraformaldehyde (PFA, Alpha aesar, #043368) PBS solution for 15 minutes at room temperature. […] Before analysis samples were washed 2 times manually for 5 minutes in ICC base buffer.
Imaging is performed using Perkin Elmer Phenix Opera using a water 20× objective and recording 9 fields per well. Intensity readout at 488 nm is used as a measure of O-GlcNAcylation level of total proteins in wells. To assess potential toxicity of compounds nuclei were counted using the Hoechst staining. IC50-values are calculated using parametric non-linear regression model fitting. As a maximum inhibition Thiamet G at a 200 uM concentration is present on each plate. In addition, a concentration response of Thiamet G is calculated on each plate.

[2] = target: T2, recombinant human Meningioma Expressed Antigen 5 (MGEA5), also referred to as O-GlcNAcase (OGA) (Homo sapiens, UniProt O60502); experiment: OGA biochemical assay (inhibition of FM-GlcNAc hydrolysis, fluorescence); conditions: for Emax / Enzymatic Emax (%): maximal effect; for Emax: read-out: Enzymatic Emax (%); for IC50: read-out: Enzymatic hOGA, pIC50 (converted)
T2 construct: Full length OGA enzyme was purchased at OnGene (cat #TP322411); purchased OnGene (so in the source)
T2 sequence (O60502 1-916): T1 sequence (O60502 1-916)
In short: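 Full-length recombinant OGA (2 nM) pre-incubated with compound 60 min at room temperature, then FM-GlcNAc (100 µM final) added in citrate/phosphate buffer pH 7.2 with 0.005% Tween-20. After 6 h at room temperature, stopped with carbonate pH 11.0; fluorescein read at 485/538 nm; IC50 and Hill coefficient from curve fit.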

SMILES | EC50 [1] [nM] | Cellular Emax (%) [1] [%] | Emax [2] [%] | IC50 [2] [nM] | Enzymatic Emax (%) [2] [%] | Emax [1] [%]
Cc1cc(OC[C@H]2CCCN(C(C)c3ccc4c(n3)OCCO4)C2)nc(C)n1 (single isomer, unassigned) [Product 162] | > 1000 | 3 | 93 | 794 |  | 
Cc1cc(OC[C@H]2CCCN(C(C)c3ccc4c(n3)OCCO4)C2)nc(C)n1 (single isomer, unassigned) [Product 163] | 45.7 | 82 |  | 7.94 | 100 | 
Cc1cc([C@H]2CCCN(C(C)c3nc4c(cc3F)OCCO4)C2)cc(C)n1 (single isomer, unassigned) [Product 164] | 6.31 |  | 100 | 3.16 |  | 86
Cc1cc([C@@H]2CCCN(C(C)c3nc4c(cc3F)OCCO4)C2)cc(C)n1 (single isomer, unassigned) [Product 165] | 100 |  | 100 | 63.1 |  | 80
Cc1cc(CO[C@H]2CCCN(C(C)c3ccc4c(n3)OCCO4)C2)cc(C)n1 (single isomer, unassigned) [Product 166] | 100 | 67 | 98 | 10 |  | 
Cc1cc(CO[C@H]2CCCN(C(C)c3ccc4c(n3)OCCO4)C2)cc(C)n1 (single isomer, unassigned) [Product 167] | > 1000 | 26 |  | 158 | 97 | 
Cc1cc(CO[C@H]2CCCN(C(C)c3nc4c(cc3F)OCCO4)C2)cc(C)n1 (single isomer, unassigned) [Product 169] | > 1000 | −5 | 85 | 2000 |  | 
Cc1cc(CO[C@H]2CCCN(C(C)c3nc4c(cc3F)OCCO4)C2)cc(C)n1 (single isomer, unassigned) [Product 170] | 12.6 | 79 |  | 3.16 | 98 | 
Cc1cc([C@H]2CCCN(C(C)c3nc4c(cc3F)CCO4)C2)cc(C)n1 (single isomer, unassigned) [Product 171] | 2.51 |  | 100 | 2.51 |  | 78
Cc1cc(CC2(F)CCCN([C@H](C)c3nc4c(cc3F)OCCO4)C2)cc(C)n1 (single isomer, unassigned) [Product 174] | 63.1 |  | 99 | 6.31 |  | 75
Cc1cc(CC2(F)CCCN([C@@H](C)c3nc4c(cc3F)OCCO4)C2)cc(C)n1 (single isomer, unassigned) [Product 175] | > 1000 |  | 92 | 1000 |  | 1
Cc1cc(CC2(F)CCCN([C@H](C)c3ccc4c(n3)OCCO4)C2)cc(C)n1 (single isomer, unassigned) [Product 176] | 126 |  | 99 | 15.8 |  | 69
Cc1cc(CC2(F)CCCN([C@@H](C)c3ccc4c(n3)OCCO4)C2)cc(C)n1 (single isomer, unassigned) [Product 177] | > 1000 |  | 81 | 2510 |  | -8
Cc1cc(OC[C@H]2CCCN(C(C)c3nc4c(cc3F)CCO4)C2)cc(C)n1 (single isomer, unassigned) [Product 179] | 251 |  | 100 | 200 |  | 72
Cc1cc(OC[C@H]2CCCN(C(C)c3nc4c(cc3F)CCO4)C2)cc(C)n1 (single isomer, unassigned) [Product 180] | 1 | 79 |  | 1.58 | 99 | 
COc1cc(OC[C@H]2CCCN([C@H](C)c3ccc4c(n3)OCCO4)C2)cc(C)n1 (single isomer, unassigned) [Product 183] | 50.1 |  | 99 | 7.94 |  | 65
COc1cc(OC[C@H]2CCCN(C(C)c3ccc4c(n3)OCCO4)C2)cc(C)n1 (single isomer, unassigned) [Product 184] | > 1000 |  | 87 | 2000 |  | -17
Cc1cc([C@H]2CCCN([C@H](C)c3ccc4c(n3)OCCO4)C2)c(F)c(C)n1 (single isomer, unassigned) [Product 186] | > 1000 |  | 83 | 2000 |  | -6
Cc1cc(C2CCCN(C(C)c3ccc4c(n3)OCCO4)C2)cc(C)n1 (stereo not shown) [Product 1] | 100 |  | 102 | 20 |  | 77
COc1cc(C2CCCN(C(C)c3ccc4c(n3)OCCO4)C2)cc(C)n1 (stereo not shown) [Product 7] | 100 |  | 103 | 12.6 |  | 77
Cc1cc(C2CCCN(C(C)c3ccc4c(n3)OCCO4)C2)cc(C(F)(F)F)n1 (stereo not shown) [Product 8] | 200 |  | 100 | 15.8 |  | 86
Cc1cc(C2CCCN(C(C)c3cc4c(cc3F)OCCO4)C2)cc(C(F)(F)F)n1 (stereo not shown) [Product 9] | 50.1 |  | 102 | 10 |  | 92
COc1cc(C2CCCN(C(C)c3ccc4c(n3)OCCO4)C2)cc(C(F)(F)F)n1 (stereo not shown) [Product 10] | 977 |  | 100 | 25.1 |  | 52
COc1cc(C2CCCN(C(C)c3cc4c(cc3F)OCCO4)C2)cc(C(F)(F)F)n1 (stereo not shown) [Product 11] | 316 |  | 103 | 20 |  | 70
Cc1cc(OC2CCCN(C(C)c3cnc4c(c3)OCCN4)C2)cc(C)n1 (stereo not shown) [Product 14] | 631 |  | 101 | 5.01 |  | 60
Cc1cc(OC2CCCN(C(C)c3cc4c(cc3F)OCCO4)C2)cc(C(F)(F)F)n1 (stereo not shown) [Product 15] | > 1000 |  | 103 | 20 |  | 16
COc1cc(OC2CCCN(C(C)c3ccc4c(n3)OCCO4)C2)cc(C)n1 (stereo not shown) [Product 18] | 794 |  | 100 | 50.1 |  | 57
Cc1cc(NCC2CCCN(C(C)c3ccc4c(n3)OCCO4)C2)cc(C)n1 (stereo not shown) [Product 21] | 15.8 |  | 103 | 5.01 |  | 88
